# Results reported in PubChem BioAssay AID1996.
# Conditions: buffer; pH 7.4; 200.0 µM
row,SMILES,solubility kinetic
1,CC(=O)N1c2ccccc2C2(C)C(C1(C)C)C2(Cl)Cl (centres undefined),6.1 µg/mL
2,CC(C)c1onc(C(=O)N2CCN(c3ccccc3)CC2)c1[N+](=O)[O-],1.9 µg/mL
3,O=[N+]([O-])c1ccccc1S(=O)(=O)NC1CC2CCC1C2 (centres undefined),> 44.5 µg/mL
4,FC(F)(F)c1cccc(CN2CCN(c3ncccn3)CC2)c1,8.7 µg/mL
5,Cc1cc(=O)[nH]c2c(C)cc(S(=O)(=O)N3CCCCC3)cc12,2.6 µg/mL
6,CN(C)/C=C/C(=O)c1ccc(Br)s1,> 39 µg/mL
7,COc1cccc(/C=C2\N=C(C3CCCCC3)OC2=O)c1OC,16.4 µg/mL
8,CC(=O)NC(CC(=O)O)c1ccc([N+](=O)[O-])cc1 (centres undefined),> 37.8 µg/mL
9,O=C(C(c1ccccc1)c1ccccc1)N1CC[C@@]2(O)CCCC[C@H]2C1,> 52.4 µg/mL
10,CN(N)c1nc(N2CCCC2)nc(N2CCCC2)n1,> 39.5 µg/mL
11,COc1ccc2nc(SCC(=O)NC3CC3)c(C#N)cc2c1,0.8 µg/mL
12,COC(=O)c1sc(SC)c2c1CC(C)(C)C/C2=N/O,< 0.6 µg/mL
13,Cc1c2c(nc3ccccc13)CC(C)(C)CC2=O.Cl,36.8 µg/mL
14,CCN1CCCC1Cn1cnc2c([nH]c3ccc(OC)cc32)c1=O (centres undefined),> 49 µg/mL
15,CC1(C)CC(CCN)(Cc2ccccc2Cl)CCO1 (centres undefined),37.7 µg/mL
16,O=C(CSC(=S)N1CCCCC1)Nc1ncc2c(n1)CCCC2=O,11.3 µg/mL
17,O=c1[nH]c(/C=C\c2cccc(F)c2)nc(O)c1[N+](=O)[O-],> 41.6 µg/mL
18,CC(C)CNP(=S)(c1ccccc1)C(C)(C)C (centres undefined),1.7 µg/mL
19,Cc1[nH]c(=O)[nH]c(=O)c1S(=O)(=O)Nc1ccc(F)c([N+](=O)[O-])c1,> 51.6 µg/mL
20,O=C1/C(=C/c2ccsc2)N2CCC1CC2,25.9 µg/mL
21,S=C1NCN(C2CCCCC2)CN1c1ccccc1,> 41.3 µg/mL
22,COc1cc(C(=O)O/N=C(\N)c2ccccn2)cc(OC)c1OC,> 49.7 µg/mL
23,Cc1ccc(NC(=O)CCCC2CCCCC2)c(O)c1,< 0.6 µg/mL
24,O=C(/C=C/c1cccc([N+](=O)[O-])c1)OCC1CCCO1 (centres undefined),34.4 µg/mL
25,C=CCN1C(=O)C2(OCCCO2)c2cccc(C)c21,37.9 µg/mL

# The remaining lines, values ahead:
row,solubility kinetic,SMILES
1,56.3 µg/mL,CC1=CC(C)(C)Nc2ccc(OC(=O)CN3C(=O)c4cccc5cccc(c45)C3=O)cc21
2,> 41.8 µg/mL,CCN(CC)C(=O)Oc1ccnc2cc(Cl)ccc12
3,> 50.3 µg/mL,COC(=O)CNC(=O)c1cc(-c2ccncc2)nc2ccc(C)cc12
4,< 0.3 µg/mL,Cc1ccc(-c2cc(N)nc(-c3ccccc3)c2)cc1
5,20.3 µg/mL,COc1cc2[nH]c(C(=O)NCCc3ccccc3)cc2c(OC)c1OC
6,6.6 µg/mL,CC(C)C(OC(=O)/C=C/c1ccc2c(c1)OCO2)C(=O)NC(N)=O (centres undefined)
7,12.8 µg/mL,O=C(Nc1ccccc1)O/N=C/c1ccc(F)cc1
8,1.4 µg/mL,CCCc1nc(SCC(=O)c2ccc(OC)cc2)c2ccccc2n1
9,> 68.3 µg/mL,COc1ccc(OC)c(-n2c(SCC(=O)NCC3CCCO3)nc3ccccc3c2=O)c1 (centres undefined)
10,> 42.5 µg/mL,Cc1cccc(NC(=O)Cn2c(=O)oc3ccccc32)n1
11,54.1 µg/mL,CCOC(=O)c1c(CC(C)C)csc1NC(=O)c1ccccc1C(=O)O
12,42.6 µg/mL,CCOc1ccccc1NC(=O)CCNC(=O)c1ccco1
13,14.3 µg/mL,O=C(COC(=O)c1ccc(Cl)nc1)NCc1ccc(F)cc1
14,32.9 µg/mL,Cc1nc2ccccc2n1Cc1ccccc1
15,> 43.5 µg/mL,COc1ccccc1NC(=O)Cn1c([N+](=O)[O-])cnc1C
16,< 0.4 µg/mL,Cn1c(SCc2cccc(Br)c2)nc2ccccc2c1=O
17,39.2 µg/mL,S=C(Nc1ccccc1)N(Cc1ccccc1)Cc1ccncc1

row,solubility kinetic,SMILES
1,< 0.4 µg/mL,Cc1ccc(C(=O)Nc2cccc3cccnc23)cc1Br
2,2.1 µg/mL,CCOC(=O)c1ccc(NC(=O)C2COc3ccccc3O2)cc1 (centres undefined)
3,1.6 µg/mL,COC(=O)c1ccc(Cn2cc(/C=C\[N+](=O)[O-])c3ccccc32)o1
4,> 50.3 µg/mL,CNC(=O)c1cc(S(=O)(=O)NCc2ccncc2)ccc1OC
5,0.4 µg/mL,CCOC(=O)c1cc(-c2csc(COc3ccccc3)n2)on1
6,38.4 µg/mL,CSc1ncc(Sc2ccccc2)c(C(=O)O)n1
7,> 50.9 µg/mL,CC(=O)C1=C(O)C(=O)N(c2ccccn2)C1c1ccccc1[N+](=O)[O-] (centres undefined)
8,0.5 µg/mL,CCC(C)c1ccc(NC(=O)c2[nH]c(C)c(C(C)=O)c2C)cc1 (centres undefined)
9,> 49.1 µg/mL,COc1ccc(CN2CCC(C(=O)c3ccc(F)cc3)CC2)cc1
10,> 43.2 µg/mL,CCOc1ccc(NC(=O)CNC(=O)c2ccco2)cc1
11,> 40.3 µg/mL,NC(=O)c1cc(Cl)ccc1OCC(=O)NC1CC1
12,5.5 µg/mL,CC(CCc1ccccc1)NC(=O)c1cnc(Cl)c(Cl)c1 (centres undefined)
13,8.3 µg/mL,CC(=O)c1ccc(N2CCc3ccccc3C2)c([N+](=O)[O-])c1
14,> 44 µg/mL,O=C(O)CC1SC(=O)N(CC(=O)c2ccccc2)C1=O (centres undefined)
15,3.2 µg/mL,CN(CC(=O)Nc1ccccc1Cl)C(=O)COC(=O)c1ccc(-c2ccc(O)cc2)cc1
16,> 49.7 µg/mL,CC1CC(CC(=O)NNc2nc(-c3ccccc3)cs2)C(=O)O1 (centres undefined)
17,> 43.1 µg/mL,O=C(O)CCN=CC1=C(O)CC(c2ccccc2)CC1=O (centres undefined)
